Source: patent US20210228467A1, “High-Potency Vitamin C Topical Formulations” (Baek Clinical Inc., priority 2018, published 2021)
Read-outs that look alike come from different tables or passages of the source.

How the values were obtained:
[1] = Solubilization / recrystallization of AA with urea in 1,3 propanediol; type: physicochemical
Source text: Next, concentrations of ascorbic acid beyond the aforementioned maximum concentration are solubilized, using urea as a co-solvent.

[2] = Comparative studies: solubilization with heating and crystallization on room temperature storage; type: physicochemical; conditions: ascorbic acid together with urea in propylene glycol, butylene glycol and propanediol
Method: This example was reproduced.
All mixtures were heated to 85° C.

[3] = 20% urea solution, cited from earlier work
[4] = Solubility of optional additional components in polyol solvents; type: physicochemical
Source text: Additional ingredients were chosen for their compatibility with (e.g., miscibility in) 1,3 propanediol, 1,2 propanediol, and 1,3 butanediol.

[5] = cited from earlier work
[6] = use of 4% HQ versus 5% Vitamin C; cited from earlier work

## NC(N)=O [U, urea]
[1]
  minimum amount U required to solubilize 20% AA: ~10%
  saturation of U reached before recrystallization of U: ~27.8%
[2]
  maximum concentrations soluble before urea starts to precipitate (the ceiling): 20%
[3]; after 11 months at room temperature
  pH: 8.8
[3]; start
  pH: 7.4

## CC1(C)[C@@H](O[C@H]2O[C@H](C(=O)O)[C@@H](O)[C@H](O)[C@H]2O[C@@H]2O[C@H](C(=O)O)[C@@H](O)[C@H](O)[C@H]2O)CC[C@]2(C)[C@H]3C(=O)C=C4[C@@H]5C[C@@](C)(C(=O)O)CC[C@]5(C)CC[C@@]4(C)[C@]3(C)CC[C@@H]12 [glycyrrhizic acid, Glycyrrhizic acid]
[4]; in 1,3-propanediol
  solubility: shows solubility

## Madecassoside
[4]; at a concentration of 0.2% in 1,3 propanediol, 1,2 propanediol and 1,3 butanediol
  solubility: soluble

## O=C(O)CCCCCCCC(=O)O [AzA, Azelaic acid, reference compound]
[5]
  pKa: 4.15
[4]; in 1,3 propanediol
  concentration solubilized: up to 10%
[4]; with 10% AA, 5% U in a 1,3 propanediol base
  concentration solubilized: 7.5%

## Oc1ccc(O)cc1 [HQ, hydroquinone]
[6]
  improvement: 93%
  side-effects: 68.7%

## O=C1O[C@H]([C@@H](O)CO)C(O)=C1O [AA, L-ascorbic acid]
[6]
  improvement: 62.5%

## COc1cc(CC(C(C)=O)C(C)=O)ccc1O [Acetyl zingerone]
[4]; in 1,3 propanediol, 1,2 propanediol and 1,3 butanediol at 0.5-1%
  solubility: readily soluble
